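1) Cells in 96-well plates. 2) Compound, 48 h, 5 concentrations. 3) Linear interpolation between surrounding doses. 4) Unreached endpoint = highest concentration. GI50 marks 50% less growth. The concentration for full growth arrest is given as TGI.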 Some results are limits rather than exact numbers.

In PubChem BioAssay (NCI) one finds GI50 and TGI data, which are given here for nine compounds.

Some test systems named below: MOLT-4 leukemia; NCI-H460 lung; SK-MEL-28 melanoma; K-562 leukemia; HL-60(TB) leukemia; SF-268 CNS; NCI/ADR-RES ovarian; U251 CNS; A498 renal; SW-620 colon.
Common to all, as to test: NCI anticancer screen, dose series, 48 h

In the case of `O=Cc1ccc(Oc2c3ccccc3nc3occc23)cc1`, the GI50 with MOLT-4 leukemia is 6.89 µM; with NCI-H460 lung, 20.2 µM; in the assay with SK-MEL-28 melanoma, 17.9 µM; with K-562 leukemia it was 22.6 µM; in the assay with HL-60(TB) leukemia, 22.9 µM; in the assay with SF-268 CNS, 15.5 µM. The GI50 in the assay with NCI/ADR-RES ovarian was 15.2 µM. Also, the TGI is 24.4 µM with MOLT-4 leukemia; 48.2 µM with NCI-H460 lung; 34.3 µM in the assay on SK-MEL-28 melanoma; above 100 µM in the assay with K-562 leukemia; 56.9 µM with HL-60(TB) leukemia; 40.8 µM in the assay on SF-268 CNS. Besides, in the assay with NCI/ADR-RES ovarian, the TGI is 45 µM.
In the case of `CO/N=C(/COc1c(-c2ccccc2)oc2ccccc2c1=O)c1ccc(OC)cc1`, the GI50 is above 100 µM in the assay with SK-MEL-28 melanoma; 42.5 µM with K-562 leukemia; 21.5 µM in the assay with HL-60(TB) leukemia; above 100 µM with U251 CNS; 32.9 µM in the assay on A498 renal; above 100 µM with SW-620 colon. The GI50 in the assay on NCI/ADR-RES ovarian was 76.2 µM. Besides, the TGI with SK-MEL-28 melanoma, in the assay on K-562 leukemia, in the assay on HL-60(TB) leukemia, in the assay on U251 CNS, with A498 renal and in the assay with SW-620 colon was above 100 µM in each case. This compound also yielded a TGI in the assay with NCI/ADR-RES ovarian above 100 µM.
As to `N#CSCc1c(Cl)cccc1Cl`, the GI50 in the assay on NCI-H460 lung is 4.29 µM; in the assay with SK-MEL-28 melanoma, 9.16 µM; in the assay on K-562 leukemia, 0.359 µM; with U251 CNS it was 3.83 µM; in the assay with SF-268 CNS, 4.9 µM; with A498 renal, 4.76 µM. The GI50 with SW-620 colon is 0.76 µM; in the assay on NCI/ADR-RES ovarian, 6.25 µM. The TGI with NCI-H460 lung was above 53.4 µM; in the assay on SK-MEL-28 melanoma it was above 100 µM; in the assay on K-562 leukemia it was 16.3 µM; in the assay on U251 CNS, above 100 µM; in the assay with SF-268 CNS, above 65.5 µM; in the assay with A498 renal it was 19.6 µM. The figures for the TGI with SW-620 colon and with NCI/ADR-RES ovarian were above 46.3 µM and above 100 µM, respectively.
For `NC(CSc1nc2ccccn2c1[N+](=O)[O-])C(=O)O` (centres undefined), the TGI in the assay on NCI-H460 lung, with SK-MEL-28 melanoma, in the assay with K-562 leukemia, in the assay with U251 CNS, with SF-268 CNS and in the assay on A498 renal was above 100 µM each time. Further, the TGI in the assay on SW-620 colon and in the assay with NCI/ADR-RES ovarian was above 100 µM each time.
On to `Cc1ccc2c(Nc3cccc(Cl)c3F)ncc(NC(=O)c3csc4c(N)ncnc34)c2c1`, for which the GI50 in the assay with MOLT-4 leukemia is above 100 µM; in the assay on NCI-H460 lung, above 100 µM; in the assay on K-562 leukemia, 1.5 µM; in the assay on HL-60(TB) leukemia it was 0.0656 µM; with U251 CNS, above 76.3 µM; with SF-268 CNS, above 100 µM. In addition, the GI50 in the assay with SW-620 colon was 1.21 µM; in the assay on NCI/ADR-RES ovarian, above 100 µM. Besides, the TGI in the assay on MOLT-4 leukemia, in the assay on NCI-H460 lung, with K-562 leukemia, with HL-60(TB) leukemia, in the assay with U251 CNS and in the assay with SF-268 CNS was above 100 µM throughout. Also, the TGI with SW-620 colon and with NCI/ADR-RES ovarian was above 100 µM each time.
For `Cc1ncc(C(=O)Nc2ccc(CN3CCN(C)CC3)c(C(F)(F)F)c2)cc1C#Cc1cnc(N)c2ncccc12`, the GI50 with MOLT-4 leukemia was 0.0946 µM; with NCI-H460 lung, 0.0869 µM; with SK-MEL-28 melanoma, 0.056 µM; with HL-60(TB) leukemia, 0.164 µM; in the assay with U251 CNS it was 1.07 µM; in the assay on SF-268 CNS, 0.417 µM. For the same compound, the GI50 in the assay with A498 renal was 0.228 µM; with SW-620 colon, 0.208 µM; with NCI/ADR-RES ovarian, 1.34 µM. The TGI turned out to be 2.15 µM in the assay on NCI-H460 lung; 1.49 µM in the assay with SK-MEL-28 melanoma; 7.67 µM in the assay with HL-60(TB) leukemia; 2.65 µM with U251 CNS; 3 µM in the assay with SF-268 CNS; 2.38 µM with A498 renal. Also, the TGI with SW-620 colon was determined as 2.9 µM; with NCI/ADR-RES ovarian it was 3.76 µM.
On to `N#Cc1cccc(/C=C(/C(=O)c2ccccc2)c2ccccc2)c1`, for which the GI50 was 3.19 µM with MOLT-4 leukemia; 3.85 µM in the assay with NCI-H460 lung; 5.35 µM with SK-MEL-28 melanoma; 3.52 µM in the assay on K-562 leukemia; 3.43 µM with U251 CNS; 4.3 µM with SF-268 CNS. Also, the results for the GI50 in the assay on A498 renal, with SW-620 colon and in the assay with NCI/ADR-RES ovarian were 4.08 µM, 3.28 µM and 3.62 µM, respectively. The TGI came out at 23.4 µM with MOLT-4 leukemia; 19.6 µM in the assay with NCI-H460 lung; 19.1 µM in the assay with SK-MEL-28 melanoma; 23.6 µM in the assay with K-562 leukemia; 12.5 µM with U251 CNS; 17.2 µM in the assay on SF-268 CNS. For the same compound, the TGI was 17.2 µM in the assay on A498 renal, 15.5 µM in the assay with SW-620 colon and above 100 µM with NCI/ADR-RES ovarian.
As for `COc1ccc2[nH]c(=O)c(/C=C/C(=O)/C=C/c3ccc(O)c(OC)c3)cc2c1`, the GI50 with MOLT-4 leukemia is 2.93 µM; in the assay on NCI-H460 lung it was 2.04 µM; with SK-MEL-28 melanoma it was 1.69 µM; in the assay on K-562 leukemia it was 1.35 µM; in the assay on HL-60(TB) leukemia it was 2.24 µM; in the assay on U251 CNS it was 1.17 µM. Moreover, the GI50 in the assay with SF-268 CNS was 2.25 µM; in the assay on SW-620 colon it was 1.13 µM; in the assay with NCI/ADR-RES ovarian it was 3.39 µM. The TGI was above 100 µM with MOLT-4 leukemia; 5 µM with NCI-H460 lung; 3.25 µM in the assay with SK-MEL-28 melanoma; above 100 µM in the assay with K-562 leukemia; above 100 µM in the assay on HL-60(TB) leukemia; 2.68 µM in the assay with U251 CNS. The figures for the TGI in the assay on SF-268 CNS, with SW-620 colon and in the assay with NCI/ADR-RES ovarian were 7.14 µM, 3.33 µM and above 100 µM, respectively.
Turning to `O=C(OCC1OC(OC(=O)c2cc(O)c(O)c(OC(=O)c3cc(O)c(O)c(O)c3)c2)C(OC(=O)c2cc(O)c(O)c(OC(=O)c3cc(O)c(O)c(O)c3)c2)C(OC(=O)c2cc(O)c(O)c(OC(=O)c3cc(O)c(O)c(O)c3)c2)C1OC(=O)c1cc(O)c(O)c(OC(=O)c2cc(O)c(O)c(O)c2)c1)c1cc(O)c(O)c(OC(=O)c2cc(O)c(O)c(O)c2)c1` (centres undefined), the GI50 is 41.3 µM in the assay on MOLT-4 leukemia; 4.14 µM in the assay with NCI-H460 lung; above 50 µM in the assay with SK-MEL-28 melanoma; 25.3 µM with K-562 leukemia; 29.4 µM in the assay with HL-60(TB) leukemia; 14.6 µM in the assay on U251 CNS. Also, the GI50 in the assay on SF-268 CNS was 7.21 µM; in the assay on SW-620 colon, 21.6 µM; in the assay on NCI/ADR-RES ovarian it was 19.2 µM. Further, the TGI in the assay with MOLT-4 leukemia was above 50 µM; in the assay with NCI-H460 lung it was 36 µM; in the assay on SK-MEL-28 melanoma it was above 50 µM; in the assay with K-562 leukemia, above 50 µM; with HL-60(TB) leukemia, above 50 µM; with U251 CNS it was above 50 µM. The values for the TGI in the assay on SF-268 CNS, with SW-620 colon and in the assay on NCI/ADR-RES ovarian were 31.3 µM, above 50 µM and above 50 µM, respectively.
